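1) Cells in 96-well plates. 2) Compound, 48 h, 5 concentrations. 3) Linear interpolation between surrounding doses. 4) Unreached endpoint = highest concentration. TGI: concentration producing complete growth inhibition.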
Experiments:
Test in all cases: NCI tumour cell line growth inhibition, 48 h
HL-60(TB) leukemia = system: HL-60(TB) leukemia
A549 NSCLC = system: A549 NSCLC
HOP-62 NSCLC = system: HOP-62 NSCLC
MALME-3M melanoma = system: MALME-3M melanoma
SNB-75 CNS = system: SNB-75 CNS
NCI-H23 lung = system: NCI-H23 lung
SK-MEL-28 melanoma = system: SK-MEL-28 melanoma
HCC-2998 colon = system: HCC-2998 colon
OVCAR-4 ovarian = system: OVCAR-4 ovarian
SN12C renal = system: SN12C renal
NCI-H460 lung = system: NCI-H460 lung
NCI-H522 lung = system: NCI-H522 lung
SF-268 CNS = system: SF-268 CNS
HCT-116 colon = system: HCT-116 colon
RXF 393 renal = system: RXF 393 renal
SNB-19 CNS = system: SNB-19 CNS
KM12 colon = system: KM12 colon
ACHN renal = system: ACHN renal
OVCAR-3 ovarian = system: OVCAR-3 ovarian
SK-OV-3 ovarian = system: SK-OV-3 ovarian
M14 melanoma = system: M14 melanoma
MOLT-4 leukemia = system: MOLT-4 leukemia
UACC-62 melanoma = system: UACC-62 melanoma
DMS 273 small cell lung = system: DMS 273 small cell lung
COLO 205 colon = system: COLO 205 colon
SNB-78 CNS = system: SNB-78 CNS
RPMI-8226 leukemia = system: RPMI-8226 leukemia
UACC-257 melanoma = system: UACC-257 melanoma
HCT-15 colon = system: HCT-15 colon
K-562 leukemia = system: K-562 leukemia
HOP-92 NSCLC = system: HOP-92 NSCLC
CAKI-1 renal = system: CAKI-1 renal
TK-10 renal = system: TK-10 renal
SW-620 colon = system: SW-620 colon
LXFL 529 NSCLC = system: LXFL 529 NSCLC
U251 CNS = system: U251 CNS
SF-295 CNS = system: SF-295 CNS
CCRF-CEM leukemia = system: CCRF-CEM leukemia
M19-MEL melanoma = system: M19-MEL melanoma
786-0 renal = system: 786-0 renal
OVCAR-8 ovarian = system: OVCAR-8 ovarian
EKVX NSCLC = system: EKVX NSCLC
HOP-18 NSCLC = system: HOP-18 NSCLC
OVCAR-5 ovarian = system: OVCAR-5 ovarian
IGROV1 ovarian = system: IGROV1 ovarian
SF-539 CNS = system: SF-539 CNS
LOX IMVI melanoma = system: LOX IMVI melanoma
HT29 colon = system: HT29 colon
KM20L2 colon = system: KM20L2 colon
SK-MEL-5 melanoma = system: SK-MEL-5 melanoma
UO-31 renal = system: UO-31 renal
A498 renal = system: A498 renal
DLD-1 colon = system: DLD-1 colon
SK-MEL-2 melanoma = system: SK-MEL-2 melanoma
NCI-H226 lung = system: NCI-H226 lung

In the case of CC[C@]1(O)CC2CN(CCCc3c([nH]c4ccccc34)[C@@](C(=O)OC)(c3cc4c(cc3OC)N(C)C3C45CCN4CC=C[C@](CC)(C45)C(OC(C)=O)[C@@]3(O)C(=O)OC)C2)C1 (stereo not given in full), the TGI (HL-60(TB) leukemia) is reported as greater than 5.65 µM, the TGI (A549 NSCLC) is reported as greater than 10 µM and the TGI (HOP-62 NSCLC) is reported as greater than 3.4 µM. It also gave a TGI (MALME-3M melanoma) greater than 3.16 µM, a TGI (SNB-75 CNS) of 5.7 µM and a TGI (NCI-H23 lung) of 3.77 µM. The TGI (SK-MEL-28 melanoma) was greater than 10 µM, the TGI (HCC-2998 colon) was 8.2 µM and the TGI (OVCAR-4 ovarian) was greater than 10 µM. The TGI (SN12C renal) was greater than 10 µM, the TGI (NCI-H460 lung) was greater than 10 µM and the TGI (NCI-H522 lung) was 0.393 µM. It also gave a TGI (SF-268 CNS) greater than 3.13 µM, a TGI (HCT-116 colon) greater than 10 µM and a TGI (RXF 393 renal) of 4.41 µM. It also gave a TGI (SNB-19 CNS) of 9.83 µM, a TGI (KM12 colon) greater than 10 µM and a TGI (ACHN renal) greater than 10 µM. For the same compound, the TGI (OVCAR-3 ovarian) was greater than 2.12 µM, the TGI (SK-OV-3 ovarian) was greater than 7.95 µM and the TGI (M14 melanoma) was 4.01 µM. It also gave a TGI (MOLT-4 leukemia) greater than 10 µM, a TGI (UACC-62 melanoma) greater than 10 µM and a TGI (DMS 273 small cell lung) greater than 10 µM. It also gave a TGI (COLO 205 colon) greater than 7.86 µM, a TGI (SNB-78 CNS) greater than 3.04 µM and a TGI (RPMI-8226 leukemia) greater than 8.84 µM. For the same compound, the TGI (UACC-257 melanoma) was greater than 10 µM, the TGI (HCT-15 colon) was greater than 10 µM and the TGI (K-562 leukemia) was greater than 10 µM. It also gave a TGI (HOP-92 NSCLC) greater than 10 µM, a TGI (CAKI-1 renal) greater than 10 µM and a TGI (TK-10 renal) greater than 10 µM. It also gave a TGI (SW-620 colon) greater than 10 µM, a TGI (LXFL 529 NSCLC) greater than 10 µM and a TGI (U251 CNS) greater than 10 µM. It also gave a TGI (SF-295 CNS) greater than 2.13 µM, a TGI (CCRF-CEM leukemia) greater than 10 µM and a TGI (M19-MEL melanoma) greater than 10 µM. It also gave a TGI (786-0 renal) greater than 10 µM, a TGI (OVCAR-8 ovarian) greater than 10 µM and a TGI (EKVX NSCLC) greater than 8.04 µM. It also gave a TGI (HOP-18 NSCLC) of 0.73 µM, a TGI (OVCAR-5 ovarian) greater than 10 µM and a TGI (IGROV1 ovarian) greater than 10 µM. For the same compound, the TGI (SF-539 CNS) was 6.03 µM, the TGI (LOX IMVI melanoma) was greater than 10 µM and the TGI (HT29 colon) was greater than 3.44 µM. The TGI (KM20L2 colon) was 1.05 µM, the TGI (SK-MEL-5 melanoma) was greater than 6.15 µM and the TGI (UO-31 renal) was greater than 10 µM. It also gave a TGI (A498 renal) of 4.54 µM, a TGI (DLD-1 colon) greater than 10 µM and a TGI (SK-MEL-2 melanoma) greater than 8.05 µM. For the same compound, the TGI (NCI-H226 lung) was greater than 3.01 µM.

Source: PubChem BioAssay (NCI)
